In the NIST ThermoML archive (doi:10.1021/je300044x):
Numbers after ± are expanded uncertainties.

Columns and labels:
[1] = Molar enthalpy of transition or fusion; settings: DSC

Normal melting temperature (Crystal 1, DTA) | Triple point temperature (Crystal 2, DTA) | Molar enthalpy of transition or fusion ([1]; Crystal 1) | Molar enthalpy of transition or fusion ([1]; Crystal 2) | SMILES | Normal melting temperature (Metastable crystal, visual observation)
– | – | – | – | CCn1cc[n+](C)c1.O=S(=O)([N-]S(=O)(=O)C(F)(F)F)C(F)(F)F | -16.24 ± 2 °C
188.27 ± 1.1 °C | 420.36 ± 1.1 K | 6.72 ± 0.194 kcal/mol | 0.39 ± 0.0359 kcal/mol | NC(=O)c1cnccn1 [pyrazinecarboxamide] | –
